Assay results published in PubChem BioAssay AID256 (DTP/NCI, 2004).
Where “and” joins values, the source holds several entries; their conditions need not be identical. Identical values can stand only once. Toxic doses and inconclusive results are not listed. Rule for the calls: active = survival T/C of 150% or more; inactive = T/C below 125% in these data.

System: CD2F1 mice, L1210 leukemia ip, survival T/C
Experiment: NCI In Vivo Anticancer Drug Screen. Data for tumor model L1210 Leukemia (intraperitoneal) in CD2F1 (CDF1) mice
Conditions: higher = longer survival
Outline: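 Read-out first: treated-group measurement over vehicle-control measurement, expressed as a ratio. Animals bore a transplanted tumor line and were dosed with compound or vehicle.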

[1] = endpoint: mean survival time, dose: 100.0 mg/kg/injection, schedule: Q04DX003 (ip), vehicle: saline with Tween-80
[2] = endpoint: mean survival time, dose: 100.0 mg/kg/injection, schedule: Q04DX003 (ip), vehicle: saline
[3] = endpoint: mean survival time, dose: 200.0 mg/kg/injection, schedule: Q04DX003 (ip), vehicle: saline
[4] = endpoint: mean survival time, dose: 100.0 mg/kg/injection, schedule: Q01DX009 (ip), vehicle: saline
[5] = endpoint: mean survival time, dose: 200.0 mg/kg/injection, schedule: Q01DX009 (ip), vehicle: saline
[6] = endpoint: mean survival time, dose: 25.0 mg/kg/injection, schedule: Q01DX009 (ip), vehicle: saline

Measured: T/C

CCCCC(=O)N(c1ccc(Nc2c3ccccc3nc3cc([N+](=O)[O-])ccc23)cc1)S(C)(=O)=O
active: [2] 167 % of control
inactive: endpoint: mean survival time, dose: 2.1 mg/kg/injection, schedule: Q04DX003 (ip), vehicle: Klucel (hydroxypropylcellulose) (HPC) 117 % of control | endpoint: mean survival time, dose: 25.0 mg/kg/injection, schedule: Q01DX009 (ip), vehicle: saline with Tween-80 96 % of control | [1] 98 % of control | endpoint: mean survival time, dose: 150.0 mg/kg/injection, schedule: Q04DX003 (ip), vehicle: saline with Tween-80 93 % of control | [3] 113 % of control

CCCNC1=C(C)C(=O)C2=C(C1=O)[C@@H](COC(N)=O)[C@]1(O)[C@H]3[C@@H](CN21)N3C (some centres not stated)
inactive: endpoint: mean survival time, dose: 1.5 mg/kg/injection, schedule: Q01DX001 (ip), vehicle: water 98 % of control and 103 % of control | endpoint: mean survival time, dose: 3.0 mg/kg/injection, schedule: Q01DX001 (ip), vehicle: water 97 % of control and 103 % of control | endpoint: mean survival time, dose: 6.0 mg/kg/injection, schedule: Q01DX001 (ip), vehicle: water 98 % of control and 101 % of control | endpoint: mean survival time, dose: 12.0 mg/kg/injection, schedule: Q01DX001 (ip), vehicle: water 98 % of control and 103 % of control | endpoint: mean survival time, dose: 24.0 mg/kg/injection, schedule: Q01DX001 (ip), vehicle: water 97 % of control and 101 % of control | endpoint: mean survival time, dose: 50.0 mg/kg/injection, schedule: Q01DX001 (ip), vehicle: distilled water + Tween-80 100 % of control | endpoint: mean survival time, dose: 100.0 mg/kg/injection, schedule: Q01DX001 (ip), vehicle: distilled water + Tween-80 108 % of control

CCOC(=O)C(C#N)C(=N)C#N (configuration not stated)
inactive: endpoint: mean survival time, dose: 100.0 mg/kg/injection, schedule: Q04DX002 (ip), vehicle: saline with Tween-80 93 % of control | endpoint: mean survival time, dose: 200.0 mg/kg/injection, schedule: Q04DX002 (ip), vehicle: saline with Tween-80 89 % of control | endpoint: mean survival time, dose: 400.0 mg/kg/injection, schedule: Q04DX002 (ip), vehicle: saline with Tween-80 110 % of control

O=C(O)C(Br)C(Br)c1ccccc1[N+](=O)[O-] (configuration not stated)
inactive: endpoint: mean survival time, dose: 12.5 mg/kg/injection, schedule: Q01DX009 (ip), vehicle: other 96 % of control | endpoint: mean survival time, dose: 25.0 mg/kg/injection, schedule: Q01DX009 (ip), vehicle: other 103 % of control | endpoint: mean survival time, dose: 50.0 mg/kg/injection, schedule: Q01DX009 (ip), vehicle: other 100 % of control | endpoint: mean survival time, dose: 100.0 mg/kg/injection, schedule: Q01DX009 (ip), vehicle: other 102 % of control | endpoint: mean survival time, dose: 200.0 mg/kg/injection, schedule: Q01DX009 (ip), vehicle: other 97 % of control

COc1cc([C@@H]2c3cc4c(cc3[C@H](O)[C@H]3COC(=O)[C@H]23)OCO4)cc(OC)c1OC
inactive: endpoint: median survival time, dose: 0.62 mg/kg/injection, schedule: Q01DX009 (ip), vehicle: saline with Tween-80 122 % of control | endpoint: median survival time, dose: 0.63 mg/kg/injection, schedule: Q01DX009 (ip), vehicle: saline with Tween-80 112 % of control | endpoint: median survival time, dose: 1.0 mg/kg/injection, schedule: Q01DX005 (ip), vehicle: Klucel (hydroxypropylcellulose) (HPC) 124 % of control | endpoint: median survival time, dose: 1.25 mg/kg/injection, schedule: Q01DX009 (ip), vehicle: saline with Tween-80 116 % of control and 120 % of control | endpoint: median survival time, dose: 1.8 mg/kg/injection, schedule: Q01DX009 (ip), vehicle: saline with Tween-80 122 % of control | endpoint: median survival time, dose: 2.0 mg/kg/injection, schedule: Q01DX005 (ip), vehicle: Klucel (hydroxypropylcellulose) (HPC) 118 % of control | endpoint: median survival time, dose: 2.5 mg/kg/injection, schedule: Q01DX009 (ip), vehicle: saline with Tween-80 122 % of control | endpoint: median survival time, dose: 10.0 mg/kg/injection, schedule: Q01DX009 (ip), vehicle: saline with Tween-80 115 % of control and 111 % of control
active: endpoint: median survival time, dose: 13.89 mg/kg/injection, schedule: Q01DX009 (ip), vehicle: saline with Tween-80 155 % of control

[CH3][Sn]1([CH3])[O]C2C(CO)OC(n3cnc4c(N)ncnc43)C2[O]1 (configuration not stated)
inactive: endpoint: mean survival time, dose: 12.5 mg/kg/injection, schedule: Q01DX005 (ip), vehicle: other 98 % of control | endpoint: mean survival time, dose: 25.0 mg/kg/injection, schedule: Q01DX005 (ip), vehicle: other 92 % of control | endpoint: mean survival time, dose: 50.0 mg/kg/injection, schedule: Q01DX005 (ip), vehicle: other 97 % of control

CNC(=O)OC[C@H]1C2=C(C(=O)C(C)=C(N)C2=O)N2C[C@H]3N[C@H]3[C@@]12OC
inactive: endpoint: mean survival time, dose: 13.75 mg/kg/injection, schedule: Q01DX001 (ip), vehicle: carboxymethylcellulose (CMC) 113 % of control

CCN(CC)CC(=O)Nc1c(Cl)cccc1Cl
inactive: [4] 98 % of control | [2] 104 % of control | [5] 92 % of control | [3] 108 % of control | endpoint: mean survival time, dose: 400.0 mg/kg/injection, schedule: Q04DX003 (ip), vehicle: saline 102 % of control

COc1ccc(C(C)C(OC(=O)c2ccc([N+](=O)[O-])cc2)c2ccccc2)cc1 (configuration not stated)
inactive: endpoint: mean survival time, dose: 100.0 mg/kg/injection, schedule: Q01DX009 (ip), vehicle: saline with Tween-80 94 % of control | [1] 88 % of control | endpoint: mean survival time, dose: 200.0 mg/kg/injection, schedule: Q01DX009 (ip), vehicle: saline with Tween-80 88 % of control | endpoint: mean survival time, dose: 200.0 mg/kg/injection, schedule: Q04DX003 (ip), vehicle: saline with Tween-80 97 % of control | endpoint: mean survival time, dose: 400.0 mg/kg/injection, schedule: Q01DX009 (ip), vehicle: saline with Tween-80 103 % of control | endpoint: mean survival time, dose: 400.0 mg/kg/injection, schedule: Q04DX003 (ip), vehicle: saline with Tween-80 94 % of control

NC(CSC(c1ccccc1)(c1ccccc1)c1cccs1)C(=O)O (configuration not stated)
inactive: [6] 92 % of control | [4] 86 % of control | [5] 95 % of control

OCC1OC(n2cnc3cncnc32)C(O)C1O (configuration not stated)
inactive: endpoint: mean survival time, dose: 0.78 mg/kg/injection, schedule: Q01DX009 (ip), vehicle: saline 94 % of control and 102 % of control | endpoint: mean survival time, dose: 1.56 mg/kg/injection, schedule: Q01DX009 (ip), vehicle: saline 106 % of control and 112 % of control | endpoint: mean survival time, dose: 3.12 mg/kg/injection, schedule: Q01DX009 (ip), vehicle: saline 103 % of control and 106 % of control | endpoint: mean survival time, dose: 6.25 mg/kg/injection, schedule: Q01DX009 (ip), vehicle: saline 118 % of control and 89 % of control | endpoint: mean survival time, dose: 12.5 mg/kg/injection, schedule: Q01DX009 (ip), vehicle: saline 106 % of control | [6] 119 % of control and 101 % of control

CC(C)(C)c1cc(Cc2cc(C(C)(C)C)c(O)c(C(C)(C)C)c2)cc(C(C)(C)C)c1O
inactive: endpoint: mean survival time, dose: 100.0 mg/kg/injection, schedule: Q01DX001 (ip), vehicle: saline with Tween-80 91 % of control | endpoint: mean survival time, dose: 200.0 mg/kg/injection, schedule: Q01DX001 (ip), vehicle: saline with Tween-80 91 % of control | endpoint: mean survival time, dose: 400.0 mg/kg/injection, schedule: Q01DX001 (ip), vehicle: saline with Tween-80 103 % of control

Cn1c(=O)c2c(ncn2-c2ccncc2)n(C)c1=O
inactive: endpoint: mean survival time, dose: 12.5 mg/kg/injection, schedule: Q01DX005 (ip), vehicle: saline with Tween-80 93 % of control | endpoint: mean survival time, dose: 25.0 mg/kg/injection, schedule: Q01DX005 (ip), vehicle: saline with Tween-80 98 % of control | endpoint: mean survival time, dose: 50.0 mg/kg/injection, schedule: Q01DX005 (ip), vehicle: saline with Tween-80 96 % of control | endpoint: mean survival time, dose: 100.0 mg/kg/injection, schedule: Q01DX005 (ip), vehicle: saline with Tween-80 104 % of control

CC1(c2ccc(O)cc2)OCCCC1([NH-])C[NH-].[Cl][Pt+2][Cl] (configuration not stated)
inactive: endpoint: median survival time, dose: 10.0 mg/kg/injection, schedule: Q04DX003 (ip), vehicle: saline 110 % of control | endpoint: median survival time, dose: 20.0 mg/kg/injection, schedule: Q04DX003 (ip), vehicle: saline 106 % of control | endpoint: median survival time, dose: 40.0 mg/kg/injection, schedule: Q04DX003 (ip), vehicle: saline 100 % of control | endpoint: median survival time, dose: 80.0 mg/kg/injection, schedule: Q04DX003 (ip), vehicle: saline with Tween-80 107 % of control | endpoint: median survival time, dose: 80.0 mg/kg/injection, schedule: Q04DX003 (ip), vehicle: saline 103 % of control | endpoint: median survival time, dose: 160.0 mg/kg/injection, schedule: Q04DX003 (ip), vehicle: saline with Tween-80 107 % of control | endpoint: median survival time, dose: 320.0 mg/kg/injection, schedule: Q04DX003 (ip), vehicle: saline with Tween-80 107 % of control

C[C@]12CC[C@@H]3c4ccc(OC(=O)Cc5ccc(N(CCCl)CCCl)cc5)cc4CC[C@H]3[C@@H]1CC[C@@H]2OC(=O)Cc1ccc(N(CCCl)CCCl)cc1
inactive: endpoint: median survival time, dose: 25.0 mg/kg/injection, schedule: Q01DX009 (ip), vehicle: Klucel (hydroxypropylcellulose) (HPC) 89 % of control | endpoint: median survival time, dose: 50.0 mg/kg/injection, schedule: Q01DX009 (ip), vehicle: Klucel (hydroxypropylcellulose) (HPC) 92 % of control | endpoint: median survival time, dose: 100.0 mg/kg/injection, schedule: Q01DX009 (ip), vehicle: Klucel (hydroxypropylcellulose) (HPC) 94 % of control | endpoint: median survival time, dose: 200.0 mg/kg/injection, schedule: Q01DX009 (ip), vehicle: Klucel (hydroxypropylcellulose) (HPC) 92 % of control | endpoint: median survival time, dose: 400.0 mg/kg/injection, schedule: Q01DX009 (ip), vehicle: Klucel (hydroxypropylcellulose) (HPC) 101 % of control

O=C(NCCO)c1cccnc1
inactive: endpoint: mean survival time, dose: 75.0 mg/kg/injection, schedule: Q04DX003 (ip), vehicle: saline sonified 103 % of control | endpoint: mean survival time, dose: 150.0 mg/kg/injection, schedule: Q04DX003 (ip), vehicle: saline sonified 97 % of control | endpoint: mean survival time, dose: 300.0 mg/kg/injection, schedule: Q04DX003 (ip), vehicle: saline sonified 97 % of control | endpoint: mean survival time, dose: 600.0 mg/kg/injection, schedule: Q04DX003 (ip), vehicle: saline sonified 102 % of control
